Data reported in patent publication US11639343B2, “Compounds targeting and degrading BCR-ABL protein and its antitumor application” (ShanghaiTech University, priority 2019, dated 2023).

Key:
[1] = test system: K562 (BCR-ABL+) cells; test: CCK-8 proliferation inhibition, K562 cells; format: cell-based, human; conditions: Homo sapiens, K562, 48 h, CCK-8, 48 hours of drug treatment; read-out: Proliferative inhibitory activity (IC50, nM) K562 (BCR-ABL+);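 also: Ten-point threefold dilution series starting at 10 µM, absorbance at 450 nm after 2 h with CCK-8, DMSO as negative control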
[2] = test system: U937 (BCR-ABL-) cells; test: CCK-8 proliferation inhibition, U937 cells; format: cell-based, human; conditions: Homo sapiens, U-937; CCK-8, 48 hours of drug treatment, highest concentration 10 μM; read-out: Proliferative inhibitory activity (IC50, nM) U937 (BCR-ABL-);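 also: Ten-point threefold dilution series, absorbance at 450 nm after 2 h with CCK-8 reagent, DMSO as negative control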
[3] = test system: HEK293 (BCR-ABL-) cells; test: CCK-8 proliferation inhibition, HEK293 cells; conditions: Homo sapiens, HEK293, 48 h, read-out: Proliferative inhibitory activity (IC50, nM) HEK293 (BCR-ABL-);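 also: Ten-point threefold dilution series starting at 10 µM, CCK-8 absorbance at 450 nm read after 2 h reagent incubation, DMSO-treated cells as negative control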
[4] = biological target: c-ABL protein (Homo sapiens, UniProt P00519); test: Western blot degradation of c-ABL in K562 cells; format: cell-based; design: Western blot was used to detect the expression of BCR-ABL and c-ABL protein in K562 cells; endogenous in cells; host or cells: K562; conditions: 16 hours, 1 nM-10 μM
Method: (§1) (1) Cell seed: K562 cells were added to the 24 well plates, with a cell density of 3×10^5/ml and a total volume of 1.5 ml; Five concentration gradients, 1 nm, 10 nm, 100 nm, 1 μM, and 10 μM, were respectively set for PROTAD series compounds and comparative examples compounds (Dasa-6-2-2-6-VHL, Dasa-6-2-6-CRBN). […] After 16 hours of drug treatment, the cells were collected in 1.5 ml ep tube, centrifuged at 3000 rpm for 3 minutes, and then added 30 μL PBS and 30 ul 2×SDS to cell precipitated, lysate Heat at 100° C. for 5 minutes, then place on ice for 5 minutes, centrifuged at 10000 rpm for 5 minutes, and take the supernatant as the total protein extracted. The protein concentration was determined by the Bradford method. After each sample was at the same concentration, bromophenol blue was added as the sample indicator.
(§2) (2) Electrophoresis: the starting voltage of the BioRad electrophoresis instrument was 80V, and as the dye enters the separation gel, the voltage was adjusted to 120V;
(§3) (3) Film transfer: prepare filter paper and nitrocellulose membrane with the corresponding size of the gel, filter paper, and NC film were soaked in transfer electrophoresis buffer.
(§4) DC50 (concentration required to degrade protein by half) were calculated based on the intensity from western blot, and data were analyzed via Prism GraphPad with non-linear regression.

[5] = biological target: BCR-ABL protein (Homo sapiens, UniProt P00519); test: Western blot degradation of BCR-ABL in K562 cells; format: cell-based; design: Western blot was used to detect the expression of BCR-ABL and c-ABL protein in K562 cells; BCR (fusion partner, P11274); endogenous in cells; host or cells: K562; the other entry of the earlier key: BCR (P11274, Breakpoint cluster region protein); conditions: 16 hours, 1 nM-10 μM
Method: as §1, §2, §3, §4

Chain of BCR-ABL protein (P00519 with tags, fused parts or gaps): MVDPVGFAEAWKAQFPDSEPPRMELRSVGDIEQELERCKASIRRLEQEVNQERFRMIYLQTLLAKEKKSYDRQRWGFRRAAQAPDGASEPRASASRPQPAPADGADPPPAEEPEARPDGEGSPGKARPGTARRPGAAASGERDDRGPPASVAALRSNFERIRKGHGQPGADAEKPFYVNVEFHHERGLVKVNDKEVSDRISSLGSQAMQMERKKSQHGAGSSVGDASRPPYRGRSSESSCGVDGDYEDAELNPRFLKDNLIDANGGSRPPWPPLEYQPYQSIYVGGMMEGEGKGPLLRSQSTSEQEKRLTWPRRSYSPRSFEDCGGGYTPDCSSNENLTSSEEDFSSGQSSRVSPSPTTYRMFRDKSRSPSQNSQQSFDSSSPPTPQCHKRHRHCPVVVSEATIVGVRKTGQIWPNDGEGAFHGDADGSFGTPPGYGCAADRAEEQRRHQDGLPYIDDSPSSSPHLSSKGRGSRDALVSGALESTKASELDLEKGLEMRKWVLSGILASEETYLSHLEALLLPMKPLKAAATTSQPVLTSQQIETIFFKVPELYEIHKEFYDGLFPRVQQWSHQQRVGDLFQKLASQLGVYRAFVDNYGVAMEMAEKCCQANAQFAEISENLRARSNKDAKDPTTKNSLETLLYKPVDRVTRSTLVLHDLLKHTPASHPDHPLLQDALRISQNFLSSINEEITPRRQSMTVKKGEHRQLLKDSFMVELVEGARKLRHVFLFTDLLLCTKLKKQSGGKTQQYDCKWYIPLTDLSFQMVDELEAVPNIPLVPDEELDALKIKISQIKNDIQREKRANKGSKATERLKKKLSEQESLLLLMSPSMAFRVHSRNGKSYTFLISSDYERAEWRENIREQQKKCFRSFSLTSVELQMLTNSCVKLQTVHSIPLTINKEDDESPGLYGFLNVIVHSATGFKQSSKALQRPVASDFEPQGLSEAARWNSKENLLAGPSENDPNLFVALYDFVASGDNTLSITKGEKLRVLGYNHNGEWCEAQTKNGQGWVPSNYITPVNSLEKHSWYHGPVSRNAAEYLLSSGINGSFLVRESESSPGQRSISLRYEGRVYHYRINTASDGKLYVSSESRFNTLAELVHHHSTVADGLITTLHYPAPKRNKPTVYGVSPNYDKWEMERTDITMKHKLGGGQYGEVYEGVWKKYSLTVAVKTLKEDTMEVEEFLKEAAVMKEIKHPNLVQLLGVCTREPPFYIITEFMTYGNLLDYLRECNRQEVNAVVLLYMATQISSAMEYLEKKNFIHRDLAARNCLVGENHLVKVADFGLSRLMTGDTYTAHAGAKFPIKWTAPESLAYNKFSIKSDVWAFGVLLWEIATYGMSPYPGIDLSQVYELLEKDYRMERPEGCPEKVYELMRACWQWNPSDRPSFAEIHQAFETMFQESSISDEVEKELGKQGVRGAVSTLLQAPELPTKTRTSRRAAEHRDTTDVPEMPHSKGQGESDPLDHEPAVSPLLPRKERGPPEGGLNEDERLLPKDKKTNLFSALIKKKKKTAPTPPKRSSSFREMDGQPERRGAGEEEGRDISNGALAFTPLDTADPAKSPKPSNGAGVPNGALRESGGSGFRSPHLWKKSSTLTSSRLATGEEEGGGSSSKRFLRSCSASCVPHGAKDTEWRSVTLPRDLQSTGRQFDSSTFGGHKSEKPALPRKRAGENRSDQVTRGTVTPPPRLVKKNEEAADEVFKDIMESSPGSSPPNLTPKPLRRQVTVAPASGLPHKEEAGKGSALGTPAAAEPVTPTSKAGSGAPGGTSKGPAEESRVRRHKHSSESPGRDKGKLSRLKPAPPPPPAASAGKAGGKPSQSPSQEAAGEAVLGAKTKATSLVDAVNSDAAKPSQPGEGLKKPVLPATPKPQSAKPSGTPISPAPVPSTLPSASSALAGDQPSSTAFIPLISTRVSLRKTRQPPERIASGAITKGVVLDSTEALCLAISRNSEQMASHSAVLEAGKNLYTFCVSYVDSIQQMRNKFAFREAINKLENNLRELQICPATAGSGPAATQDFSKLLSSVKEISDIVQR
Chain of c-ABL protein (P00519 whole entry): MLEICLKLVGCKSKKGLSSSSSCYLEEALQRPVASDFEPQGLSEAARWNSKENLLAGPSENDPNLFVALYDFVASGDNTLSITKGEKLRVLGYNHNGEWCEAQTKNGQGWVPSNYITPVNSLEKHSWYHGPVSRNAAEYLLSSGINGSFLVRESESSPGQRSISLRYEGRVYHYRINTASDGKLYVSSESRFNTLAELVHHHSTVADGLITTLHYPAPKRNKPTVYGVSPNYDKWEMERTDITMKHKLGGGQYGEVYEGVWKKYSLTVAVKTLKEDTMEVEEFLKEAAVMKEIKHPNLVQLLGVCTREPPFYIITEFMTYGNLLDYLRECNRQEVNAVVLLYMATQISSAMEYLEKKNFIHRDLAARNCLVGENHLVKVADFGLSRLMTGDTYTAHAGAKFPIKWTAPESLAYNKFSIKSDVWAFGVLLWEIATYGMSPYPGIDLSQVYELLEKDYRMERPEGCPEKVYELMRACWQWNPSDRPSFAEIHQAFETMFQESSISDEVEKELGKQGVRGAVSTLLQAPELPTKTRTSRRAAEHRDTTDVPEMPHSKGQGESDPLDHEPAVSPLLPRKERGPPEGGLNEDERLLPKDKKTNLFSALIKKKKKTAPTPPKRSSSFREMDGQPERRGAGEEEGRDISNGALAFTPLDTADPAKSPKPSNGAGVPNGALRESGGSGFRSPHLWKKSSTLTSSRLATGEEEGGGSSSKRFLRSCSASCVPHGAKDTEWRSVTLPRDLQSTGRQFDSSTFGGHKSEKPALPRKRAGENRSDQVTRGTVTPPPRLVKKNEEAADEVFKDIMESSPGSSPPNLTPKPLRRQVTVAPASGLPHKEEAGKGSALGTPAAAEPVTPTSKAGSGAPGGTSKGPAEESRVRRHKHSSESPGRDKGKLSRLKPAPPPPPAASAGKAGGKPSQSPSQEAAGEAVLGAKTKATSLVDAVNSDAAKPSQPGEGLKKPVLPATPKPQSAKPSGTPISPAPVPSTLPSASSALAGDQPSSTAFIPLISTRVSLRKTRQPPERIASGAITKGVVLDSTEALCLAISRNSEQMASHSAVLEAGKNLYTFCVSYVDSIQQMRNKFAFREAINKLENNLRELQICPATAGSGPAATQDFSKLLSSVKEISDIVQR

Compound | IC50 [1] | IC50 [2] | IC50 [3] | DC50 [4] | DC50 [5]
Cc1nc(Nc2ncc(C(=O)Nc3c(C)cccc3Cl)s2)cc(N2CCN(C(=O)CCCCC(=O)N[C@H](C(=O)N3C[C@H](O)C[C@H]3C(=O)NCc3ccc(-c4scnc4C)cc3)C(C)(C)C)CC2)n1 [SIAIS151176, N-(2-chloro-6-methylphenyl)-2-((6-(4-(6-(((S)-1-((2S,4R)-4-hydroxy-2-((4-(4-methylthiazol-5-yl)benzyl)carbamoyl)pyrrolidin-1-yl)-3,3-dimethyl-1-oxobutan-2-yl)amino)-6-oxohexanoyl)piperazin-1-yl)-2-methylpyrimidin-4-yl)amino)thiazole-5-carboxamide] | 89 nM | > 10000 nM | > 10000 nM | 100 to 1000 nM | 10 to 100 nM
Cc1nc(Nc2ncc(C(=O)Nc3c(C)cccc3Cl)s2)cc(N2CCN(C(=O)CCCCCC(=O)N[C@H](C(=O)N3C[C@H](O)C[C@H]3C(=O)NCc3ccc(-c4scnc4C)cc3)C(C)(C)C)CC2)n1 [SIAIS151177, N-(2-chloro-6-methylphenyl)-2-((6-(4-(7-(((S)-1-((2S,4R)-4-hydroxy-2-((4-(4-methylthiazol-5-yl)benzyl)carbamoyl)pyrrolidin-1-yl)-3,3-dimethyl-1-oxobutan-2-yl)amino)-7-oxoheptanoyl)piperazin-1-yl)-2-methylpyrimidin-4-yl)amino)thiazole-5-carboxamide] | 37.6 nM | > 10000 nM | > 10000 nM | 10 to 100 nM | 1 to 10 nM
Cc1nc(Nc2ncc(C(=O)Nc3c(C)cccc3Cl)s2)cc(N2CCN(C(=O)CCCCCCCC(=O)N[C@H](C(=O)N3C[C@H](O)C[C@H]3C(=O)NCc3ccc(-c4scnc4C)cc3)C(C)(C)C)CC2)n1 [SIAIS151179, N-(2-chloro-6-methylphenyl)-2-((6-(4-(9-(((S)-1-((2S,4R)-4-hydroxy-2-((4-(4-methylthiazol-5-yl)benzyl)carbamoyl)pyrrolidin-1-yl)-3,3-dimethyl-1-oxobutan-2-yl)amino)-9-oxononanoyl)piperazin-1-yl)-2-methylpyrimidin-4-yl)amino)thiazole-5-carboxamide] | 22.4 nM | > 10000 nM | > 10000 nM | 100 to 1000 nM | 10 to 100 nM
Cc1nc(Nc2ncc(C(=O)Nc3c(C)cccc3Cl)s2)cc(N2CCN(C(=O)CCCCCCCCC(=O)N[C@H](C(=O)N3C[C@H](O)C[C@H]3C(=O)NCc3ccc(-c4scnc4C)cc3)C(C)(C)C)CC2)n1 [SIAIS151180, N-(2-chloro-6-methylphenyl)-2-((6-(4-(10-(((S)-1-((2S,4R)-4-hydroxy-2-((4-(4-methylthiazol-5-yl)benzyl)carbamoyl)pyrrolidin-1-yl)-3,3-dimethyl-1-oxobutan-2-yl)amino)-10-oxodecanoyl)piperazin-1-yl)-2-methylpyrimidin-4-yl)amino)thiazole-5-carboxamide] | 14.3 nM | > 10000 nM | > 10000 nM | 10 to 100 nM | 1 to 10 nM
Cc1nc(Nc2ncc(C(=O)Nc3c(C)cccc3Cl)s2)cc(N2CCN(C(=O)CCCCCCNc3cccc4c3C(=O)N(C3CCC(=O)NC3=O)C4=O)CC2)n1 (centres unmarked) [SIAIS151181, N-(2-chloro-6-methylphenyl)-2-((6-(4-(7-((2-(2,6-dioxopiperidin-3-yl)-1,3-dioxoisoindolin-4-yl)amino)heptanoyl)piperazin-1-yl)-2-methylpyrimidin-4-yl)amino)thiazole-5-carboxamide] | 1.47 nM | > 10000 nM | > 10000 nM | 1 to 10 nM | 1 to 10 nM
COc1cc(Nc2c(C#N)cnc3cc(OCCCN4CCN(C(=O)CCC(=O)Nc5cccc6c5CN(C5CCC(=O)NC5=O)C6=O)CC4)c(OC)cc23)c(Cl)cc1Cl (centres unmarked) [SIAIS164105, 4-(4-(3-((3-cyano-4-((2,4-dichloro-5-methoxyphenyl)amino)-6-methoxyquinolin-7-yl)oxy)propyl)piperazin-1-yl)-N-(2-(2,6-dioxopiperidin-3-yl)-1-oxoisoindolin-4-yl)-4-oxobutanamide] | 459 nM | > 10000 nM | > 10000 nM | 10 to 100 nM | 10 to 100 nM
Cc1nc(Nc2ncc(C(=O)Nc3c(C)cccc3Cl)s2)cc(N2CCN(C(=O)CC(=O)Nc3cccc4c3CN(C3CCC(=O)NC3=O)C4=O)CC2)n1 (centres unmarked) [SIAIS164108, N-(2-chloro-6-methylphenyl)-2-((6-(4-(3-((2-(2,6-dioxopiperidin-3-yl)-1-oxoisoindolin-4-yl)amino)-3-oxopropanoyl)piperazin-1-yl)-2-methylpyrimidin-4-yl)amino)thiazole-5-carboxamide] | 12.2 nM | > 10000 nM | > 10000 nM | 10 to 100 nM | 10 to 100 nM
Cc1nc(Nc2ncc(C(=O)Nc3c(C)cccc3Cl)s2)cc(N2CCN(C(=O)CCC(=O)Nc3cccc4c3CN(C3CCC(=O)NC3=O)C4=O)CC2)n1 (centres unmarked) [SIAIS164109, N-(2-chloro-6-methylphenyl)-2-((6-(4-(4-((2-(2,6-dioxopiperidin-3-yl)-1-oxoisoindolin-4-yl)amino)-4-oxobutanoyl)piperazin-1-yl)-2-methylpyrimidin-4-yl)amino)thiazole-5-carboxamide] | 7.08 nM | > 10000 nM | > 10000 nM | 100 to 1000 nM | 100 to 1000 nM
Cc1nc(Nc2ncc(C(=O)Nc3c(C)cccc3Cl)s2)cc(N2CCN(C(=O)CCCC(=O)Nc3cccc4c3CN(C3CCC(=O)NC3=O)C4=O)CC2)n1 (centres unmarked) [SIAIS164110, N-(2-chloro-6-methylphenyl)-2-((6-(4-(5-((2-(2,6-dioxopiperidin-3-yl)-1-oxoisoindolin-4-yl)amino)-5-oxopentanoyl)piperazin-1-yl)-2-methylpyrimidin-4-yl)amino)thiazole-5-carboxamide] | 1.03 nM | > 10000 nM | > 10000 nM | 10 to 100 nM | 10 to 100 nM
COc1cc(Nc2c(C#N)cnc3cc(OCCCN4CCN(C(=O)CCC(=O)NCCNc5cccc6c5C(=O)N(C5CCC(=O)NC5=O)C6=O)CC4)c(OC)cc23)c(Cl)cc1Cl (centres unmarked) [SIAIS164136, 4-(4-(3-((3-cyano-4-((2,4-dichloro-5-methoxyphenyl)amino)-6-methoxyquinolin-7-yl)oxy)propyl)piperazin-1-yl)-N-(2-((2-(2,6-dioxopiperidin-3-yl)-1,3-dioxoisoindolin-4-yl)amino)ethyl)-4-oxobutanamide] | 77.6 nM | > 10000 nM | > 10000 nM | 1 to 10 nM | 1 to 10 nM
Cc1nc(Nc2ncc(C(=O)Nc3c(C)cccc3Cl)s2)cc(N2CCN(C(=O)CCCCCOCCOCCOCCCCCC(=O)Nc3cccc4c3C(=O)N(C3CCC(=O)NC3=O)C4=O)CC2)n1 (centres unmarked) [SIAIS171114, N-(2-chloro-6-methylphenyl)-2-((6-(4-(6-(2-(2-((6-((2-(2,6-dioxopiperidin-3-yl)-1,3-dioxoisoindolin-4-yl)amino)-6-oxohexyl)oxy)ethoxy)ethoxy)hexanoyl)piperazin-1-yl)-2-methylpyrimidin-4-yl)amino)thiazole-5-carboxamide] | 2.57 nM | > 10000 nM | > 10000 nM | 10 to 100 nM | 10 to 100 nM
Cc1nc(Nc2ncc(C(=O)Nc3c(C)cccc3Cl)s2)cc(N2CCN(C(=O)CCc3cccc4c3C(=O)N(C3CCC(=O)NC3=O)C4=O)CC2)n1 (centres unmarked) [SIAIS172150, N-(2-chloro-6-methylphenyl)-2-((6-(4-(3-(2-(2,6-dioxopiperidin-3-yl)-1,3-dioxoisoindolin-4-yl)propanoyl)piperazin-1-yl)-2-methylpyrimidin-4-yl)amino)thiazole-5-carboxamide] | 2.84 nM | > 10000 nM | > 10000 nM | 10 to 100 nM | 10 to 100 nM
Cc1nc(Nc2ncc(C(=O)Nc3c(C)cccc3Cl)s2)cc(N2CCN(C(=O)CCCCNc3cccc4c3CN(C3CCC(=O)NC3=O)C4=O)CC2)n1 (centres unmarked) [SIAIS184052, N-(2-chloro-6-methylphenyl)-2-((6-(4-(5-((2-(2,6-dioxopiperidin-3-yl)-1-oxoisoindolin-4-yl)amino)pentanoyl)piperazin-1-yl)-2-methylpyrimidin-4-yl)amino)thiazole-5-carboxamide] | 4.2 nM | > 10000 nM | > 10000 nM | 10 to 100 nM | 1 to 10 nM
